The values below come from ChEMBL document CHEMBL2434948, “Discovery, synthesis, and characterization of an orally bioavailable, brain penetrant inhibitor of mixed lineage kinase 3” (J Med Chem, 2013).

Active and inactive are the calls of the source. No cut-off for these calls is given here.

Broadly, the inhibition is the share of the control response that was lost under treatment. One may read the IC50 as the concentration that gives 50% inhibition.

The target in test [1] is Cyclin-dependent kinase 4 (Homo sapiens) (UniProt P11802). As to the kind of experiment: Inhibition of human wild type CDK4 at 1 uM by qPCR analysis relative to control. Background: Real-time PCR tracks product formation cycle by cycle.
Test [2] has as its target Glycogen synthase kinase-3 beta (Homo sapiens, UniProt P49841).
Description: Inhibition of wild type human GSK3B by high throughput ATP-[33P] radiolabeled assay
The target of test [3] is Rho-associated protein kinase 2 (Homo sapiens, UniProt O75116).
Description: Inhibition of wild type human ROCK2 by high throughput ATP-[33P] radiolabeled assay
Test [4] deals with Inhibitor of nuclear factor kappa-B kinase subunit alpha (Homo sapiens) (UniProt O15111). As to the kind of experiment: Inhibition of human wild type IKKalpha at 1 uM by qPCR analysis relative to control.
Test [5] concerns the target Serine/threonine-protein kinase MARK1 (Homo sapiens) (UniProt Q9P0L2). As to the kind of experiment: Inhibition of human wild type MARK1 at 1 uM by qPCR analysis relative to control.
The target in test [6] is ALK tyrosine kinase receptor (Homo sapiens) (UniProt Q9UM73). As to the kind of experiment: Inhibition of human wild type ALK at 1 uM by qPCR analysis relative to control.
In test [7] the target is Epidermal growth factor receptor (Homo sapiens) (UniProt P00533). As to the kind of experiment: Inhibition of human wild type EGFR at 1 uM by qPCR analysis.
Test [8] addresses Maternal embryonic leucine zipper kinase (Homo sapiens) (UniProt Q14680). Nature of the test: Inhibition of human wild type MELK at 1 uM by qPCR analysis relative to control.
Test [9] deals with Hepatocyte growth factor receptor (Homo sapiens, UniProt P08581).
Description: Inhibition of wild type human c-MET by high throughput ATP-[33P] radiolabeled assay
In test [10] the target is T1, Receptor-type tyrosine-protein kinase FLT3 (Homo sapiens, UniProt P36888).
T1 sequence (P36888 whole entry): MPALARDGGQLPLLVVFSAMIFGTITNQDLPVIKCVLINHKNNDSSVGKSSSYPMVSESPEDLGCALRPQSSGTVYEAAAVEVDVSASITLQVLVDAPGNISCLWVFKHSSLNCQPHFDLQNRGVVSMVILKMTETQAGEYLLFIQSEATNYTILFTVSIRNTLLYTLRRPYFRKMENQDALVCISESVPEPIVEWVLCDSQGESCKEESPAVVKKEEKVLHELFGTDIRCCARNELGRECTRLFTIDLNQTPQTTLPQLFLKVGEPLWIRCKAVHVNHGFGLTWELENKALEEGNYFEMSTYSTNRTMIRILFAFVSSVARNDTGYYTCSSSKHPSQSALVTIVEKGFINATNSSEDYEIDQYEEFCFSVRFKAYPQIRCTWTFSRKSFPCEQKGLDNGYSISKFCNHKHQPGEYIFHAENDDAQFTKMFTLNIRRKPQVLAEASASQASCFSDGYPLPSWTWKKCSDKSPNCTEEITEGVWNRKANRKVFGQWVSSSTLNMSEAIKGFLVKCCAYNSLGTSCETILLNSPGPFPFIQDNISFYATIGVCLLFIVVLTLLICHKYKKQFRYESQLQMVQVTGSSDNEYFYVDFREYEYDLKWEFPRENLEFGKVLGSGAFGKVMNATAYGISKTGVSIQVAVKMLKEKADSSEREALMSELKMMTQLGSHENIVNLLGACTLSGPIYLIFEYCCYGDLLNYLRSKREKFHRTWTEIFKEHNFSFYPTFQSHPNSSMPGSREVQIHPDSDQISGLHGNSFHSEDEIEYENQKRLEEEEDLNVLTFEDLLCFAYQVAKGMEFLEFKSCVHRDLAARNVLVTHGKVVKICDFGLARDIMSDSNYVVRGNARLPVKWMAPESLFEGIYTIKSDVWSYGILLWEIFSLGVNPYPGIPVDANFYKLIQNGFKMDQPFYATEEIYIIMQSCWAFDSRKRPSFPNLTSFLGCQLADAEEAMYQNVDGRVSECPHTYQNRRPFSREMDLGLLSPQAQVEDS
Description: Inhibition of wild type human FLT3 by high throughput ATP-[33P] radiolabeled assay

For test [11], the target named is TRAF2 and NCK-interacting protein kinase (Homo sapiens) (UniProt Q9UKE5). Nature of the test: Binding affinity to human wild type TNIK at 1 uM by qPCR analysis.
The next test deals with Aurora kinase C (Homo sapiens, UniProt Q9UQB9).
Test [12] addresses Mast/stem cell growth factor receptor Kit (Homo sapiens) (UniProt P10721). Nature of the test: Inhibition of human wild type KIT at 1 uM by qPCR analysis relative to control.
Test [13] has as its target Mitogen-activated protein kinase kinase kinase 11 (Homo sapiens, UniProt Q16584).
Description: Inhibition of MLK3 (unknown origin) after 20 mins by scintillation counting analysis in presence of [33P]-ATP
Test [14] concerns the target Rho-associated protein kinase 1 (Homo sapiens, UniProt Q13464).
Description: Inhibition of wild type human ROCK1 by high throughput ATP-[33P] radiolabeled assay
The target of test [15] is NUAK family SNF1-like kinase 1 (Homo sapiens) (UniProt O60285). Nature of the test: Inhibition of human wild type ARK5 at 1 uM by qPCR analysis relative to control.
In test [16] the target is Serine/threonine-protein kinase Sgk1 (Homo sapiens) (UniProt O00141). As to the kind of experiment: Inhibition of human wild type SGK1 at 1 uM by qPCR analysis relative to control.
In test [17] the target is Tyrosine-protein kinase SYK (Homo sapiens, UniProt P43405).
Description: Inhibition of wild type human SYK by high throughput ATP-[33P] radiolabeled assay

Sequence of Maternal embryonic leucine zipper kinase (Homo sapiens) (Q14680 whole entry, looked up): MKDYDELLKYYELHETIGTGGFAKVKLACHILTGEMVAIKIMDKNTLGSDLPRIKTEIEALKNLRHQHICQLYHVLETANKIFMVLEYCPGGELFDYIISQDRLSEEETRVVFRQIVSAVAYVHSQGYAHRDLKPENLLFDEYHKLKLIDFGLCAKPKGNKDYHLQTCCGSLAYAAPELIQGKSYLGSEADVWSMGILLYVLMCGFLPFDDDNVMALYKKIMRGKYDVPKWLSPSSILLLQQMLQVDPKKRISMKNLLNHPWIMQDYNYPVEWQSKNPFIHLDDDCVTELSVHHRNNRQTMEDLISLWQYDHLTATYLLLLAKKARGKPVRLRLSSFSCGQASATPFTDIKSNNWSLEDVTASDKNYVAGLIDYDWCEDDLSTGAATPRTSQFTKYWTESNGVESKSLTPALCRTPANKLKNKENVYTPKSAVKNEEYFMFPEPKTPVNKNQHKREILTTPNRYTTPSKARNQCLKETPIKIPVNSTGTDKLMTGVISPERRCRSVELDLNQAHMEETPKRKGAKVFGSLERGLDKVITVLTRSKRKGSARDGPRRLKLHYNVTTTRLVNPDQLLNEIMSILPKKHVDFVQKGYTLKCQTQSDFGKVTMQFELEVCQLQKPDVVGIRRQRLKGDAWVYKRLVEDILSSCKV
Sequence of Serine/threonine-protein kinase Sgk1 (Homo sapiens) (O00141 whole entry): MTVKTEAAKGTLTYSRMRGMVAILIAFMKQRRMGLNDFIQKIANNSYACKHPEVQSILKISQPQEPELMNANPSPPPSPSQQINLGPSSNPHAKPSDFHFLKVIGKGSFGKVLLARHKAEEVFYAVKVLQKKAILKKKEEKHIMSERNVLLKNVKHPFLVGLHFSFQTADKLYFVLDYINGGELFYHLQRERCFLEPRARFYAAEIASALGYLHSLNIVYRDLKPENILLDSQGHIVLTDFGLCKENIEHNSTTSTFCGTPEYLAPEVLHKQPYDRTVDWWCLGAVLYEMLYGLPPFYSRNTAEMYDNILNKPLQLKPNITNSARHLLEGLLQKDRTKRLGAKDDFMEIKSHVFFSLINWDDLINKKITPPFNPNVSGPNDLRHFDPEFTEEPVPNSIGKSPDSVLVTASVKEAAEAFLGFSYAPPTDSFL
Sequence of NUAK family SNF1-like kinase 1 (Homo sapiens) (O60285 whole entry): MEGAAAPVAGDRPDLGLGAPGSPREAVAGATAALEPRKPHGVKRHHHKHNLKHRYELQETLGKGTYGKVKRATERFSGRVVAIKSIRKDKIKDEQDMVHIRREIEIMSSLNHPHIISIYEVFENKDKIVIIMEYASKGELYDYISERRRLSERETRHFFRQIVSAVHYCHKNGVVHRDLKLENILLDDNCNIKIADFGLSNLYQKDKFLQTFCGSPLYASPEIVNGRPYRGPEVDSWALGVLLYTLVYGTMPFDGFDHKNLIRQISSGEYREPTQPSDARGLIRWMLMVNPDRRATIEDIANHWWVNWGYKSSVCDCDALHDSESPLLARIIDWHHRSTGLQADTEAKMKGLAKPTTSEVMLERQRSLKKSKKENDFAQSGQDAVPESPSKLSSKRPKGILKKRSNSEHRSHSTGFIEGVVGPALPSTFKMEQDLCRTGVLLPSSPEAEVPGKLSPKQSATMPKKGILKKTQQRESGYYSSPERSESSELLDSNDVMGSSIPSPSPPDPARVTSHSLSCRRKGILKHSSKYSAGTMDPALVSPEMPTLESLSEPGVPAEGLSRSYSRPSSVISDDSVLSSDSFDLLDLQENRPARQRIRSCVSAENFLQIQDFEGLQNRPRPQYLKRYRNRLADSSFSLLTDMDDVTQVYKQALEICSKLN
Sequence of ALK tyrosine kinase receptor (Homo sapiens) (Q9UM73 19-1620 limits assumed): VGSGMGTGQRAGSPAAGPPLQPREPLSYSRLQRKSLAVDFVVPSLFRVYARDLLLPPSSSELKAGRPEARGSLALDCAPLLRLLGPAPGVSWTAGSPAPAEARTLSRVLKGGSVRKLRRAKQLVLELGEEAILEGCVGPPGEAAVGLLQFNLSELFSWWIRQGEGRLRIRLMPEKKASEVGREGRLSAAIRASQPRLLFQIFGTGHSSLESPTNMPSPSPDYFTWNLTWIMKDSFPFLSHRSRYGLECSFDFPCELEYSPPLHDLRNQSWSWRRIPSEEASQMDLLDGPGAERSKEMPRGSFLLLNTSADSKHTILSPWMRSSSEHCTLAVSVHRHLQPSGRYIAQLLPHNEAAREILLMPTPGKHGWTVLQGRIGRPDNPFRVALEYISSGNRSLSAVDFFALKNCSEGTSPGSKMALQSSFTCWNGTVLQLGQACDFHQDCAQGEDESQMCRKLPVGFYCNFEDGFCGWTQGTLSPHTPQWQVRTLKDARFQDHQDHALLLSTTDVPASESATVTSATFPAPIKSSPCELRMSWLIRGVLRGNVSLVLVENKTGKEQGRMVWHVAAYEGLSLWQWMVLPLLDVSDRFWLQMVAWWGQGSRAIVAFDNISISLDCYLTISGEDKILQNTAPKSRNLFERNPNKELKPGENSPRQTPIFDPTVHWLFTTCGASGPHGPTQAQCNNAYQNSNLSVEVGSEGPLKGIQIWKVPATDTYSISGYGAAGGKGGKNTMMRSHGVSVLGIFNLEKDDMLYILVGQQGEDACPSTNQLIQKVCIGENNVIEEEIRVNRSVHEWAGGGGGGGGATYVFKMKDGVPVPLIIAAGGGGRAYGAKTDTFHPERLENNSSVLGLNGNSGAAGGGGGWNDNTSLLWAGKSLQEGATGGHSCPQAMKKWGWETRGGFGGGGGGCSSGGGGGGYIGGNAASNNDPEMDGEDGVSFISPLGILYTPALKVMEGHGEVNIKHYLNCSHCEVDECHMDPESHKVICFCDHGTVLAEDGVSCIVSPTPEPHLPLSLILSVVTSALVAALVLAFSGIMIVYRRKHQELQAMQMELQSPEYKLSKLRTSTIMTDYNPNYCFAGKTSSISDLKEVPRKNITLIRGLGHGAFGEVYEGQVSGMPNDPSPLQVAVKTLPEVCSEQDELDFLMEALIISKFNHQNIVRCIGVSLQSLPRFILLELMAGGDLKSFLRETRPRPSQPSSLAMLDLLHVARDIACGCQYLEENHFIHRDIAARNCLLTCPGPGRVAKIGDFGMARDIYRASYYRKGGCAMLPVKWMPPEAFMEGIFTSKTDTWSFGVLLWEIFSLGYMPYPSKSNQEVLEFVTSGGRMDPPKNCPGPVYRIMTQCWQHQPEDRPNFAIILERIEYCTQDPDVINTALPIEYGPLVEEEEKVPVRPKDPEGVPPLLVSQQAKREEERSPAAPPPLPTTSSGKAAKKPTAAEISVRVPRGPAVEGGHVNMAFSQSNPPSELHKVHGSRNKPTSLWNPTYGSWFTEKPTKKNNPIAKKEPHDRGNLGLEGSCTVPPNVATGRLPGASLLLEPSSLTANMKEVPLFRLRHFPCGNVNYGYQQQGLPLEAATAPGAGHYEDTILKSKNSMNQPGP
Sequence of TRAF2 and NCK-interacting protein kinase (Homo sapiens) (Q9UKE5 whole entry, looked up): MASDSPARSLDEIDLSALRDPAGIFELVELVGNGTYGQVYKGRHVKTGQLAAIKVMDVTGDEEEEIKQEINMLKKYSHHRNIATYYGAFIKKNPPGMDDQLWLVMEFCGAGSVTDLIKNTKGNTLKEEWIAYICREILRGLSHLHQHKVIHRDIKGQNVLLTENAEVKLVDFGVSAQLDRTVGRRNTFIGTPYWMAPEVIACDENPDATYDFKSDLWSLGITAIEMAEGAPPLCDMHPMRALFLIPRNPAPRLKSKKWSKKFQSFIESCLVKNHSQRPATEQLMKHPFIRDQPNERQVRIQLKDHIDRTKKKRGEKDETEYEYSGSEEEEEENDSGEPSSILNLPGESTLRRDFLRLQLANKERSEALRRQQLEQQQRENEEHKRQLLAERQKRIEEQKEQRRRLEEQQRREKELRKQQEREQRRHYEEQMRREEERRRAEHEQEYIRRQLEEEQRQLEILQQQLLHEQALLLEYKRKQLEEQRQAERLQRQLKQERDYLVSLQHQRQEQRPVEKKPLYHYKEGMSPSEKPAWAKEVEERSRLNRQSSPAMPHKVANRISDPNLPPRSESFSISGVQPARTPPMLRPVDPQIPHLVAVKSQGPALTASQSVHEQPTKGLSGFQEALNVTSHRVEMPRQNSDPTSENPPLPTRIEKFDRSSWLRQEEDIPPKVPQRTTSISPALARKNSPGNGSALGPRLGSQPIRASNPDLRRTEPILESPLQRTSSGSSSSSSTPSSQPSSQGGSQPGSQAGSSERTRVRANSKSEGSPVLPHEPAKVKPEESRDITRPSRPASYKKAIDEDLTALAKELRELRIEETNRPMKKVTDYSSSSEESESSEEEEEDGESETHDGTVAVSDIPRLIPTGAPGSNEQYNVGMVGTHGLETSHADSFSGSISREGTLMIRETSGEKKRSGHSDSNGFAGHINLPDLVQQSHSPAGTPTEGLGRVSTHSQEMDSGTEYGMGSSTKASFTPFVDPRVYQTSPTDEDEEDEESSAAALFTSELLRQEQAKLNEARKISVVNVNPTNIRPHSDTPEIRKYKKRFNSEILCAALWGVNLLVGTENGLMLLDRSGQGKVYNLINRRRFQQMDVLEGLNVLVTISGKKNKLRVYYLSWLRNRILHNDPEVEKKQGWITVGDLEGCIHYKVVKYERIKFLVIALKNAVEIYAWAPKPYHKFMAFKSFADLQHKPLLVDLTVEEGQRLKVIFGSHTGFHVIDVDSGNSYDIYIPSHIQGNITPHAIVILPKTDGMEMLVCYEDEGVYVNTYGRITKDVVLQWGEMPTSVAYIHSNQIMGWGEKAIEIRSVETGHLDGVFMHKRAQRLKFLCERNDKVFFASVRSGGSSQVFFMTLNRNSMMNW
Sequence of Aurora kinase C (Q9UQB9 whole entry): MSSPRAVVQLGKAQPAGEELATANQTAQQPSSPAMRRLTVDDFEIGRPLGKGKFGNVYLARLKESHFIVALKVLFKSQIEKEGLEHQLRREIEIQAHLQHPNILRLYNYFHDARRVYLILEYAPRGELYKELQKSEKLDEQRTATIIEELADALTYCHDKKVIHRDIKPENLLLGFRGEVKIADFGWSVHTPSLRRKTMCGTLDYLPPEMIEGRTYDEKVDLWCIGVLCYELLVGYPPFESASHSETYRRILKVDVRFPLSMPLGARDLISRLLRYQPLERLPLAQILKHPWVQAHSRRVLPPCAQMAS
Description for Aurora kinase C: Inhibition of wild type human Aurora kinase C kinase by high throughput ATP-[33P] radiolabeled assay

With `CN1CCN(Cc2ccc(-c3cnc4[nH]cc(-c5ccc6[nH]ccc6c5)c4c3)cc2)CC1`, the inhibition in test [1] is over 90%; in test [4], over 90%; in test [5], 92%; in [6], over 90%; in [8] it was over 90%; in test [12] it was over 90%. Moreover, the values for the inhibition in test [15] and in [16] were over 90% and 70%, respectively. For the same compound, the half-maximal inhibitory concentration (IC50) in test [2] was over 10000 nM; in test [3] it was 111 nM; in test [9] it was 177 nM; in test [10], 4 nM; at Aurora kinase C it was 290 nM; in test [13], 14 nM. The results for the half-maximal inhibitory concentration (IC50) in test [14] and in test [17] were 1030 nM and 731 nM, respectively. Besides, the inhibition entry in test [7] is “inactive”. Besides, the inhibition result in [11] is “Active”.
